Laboratory results reported in patent US7833795B2, “Assessment of cardiovascular risk using isoprostane biomarkers and COX-2 selective inhibitors” (The Trustees of the University of Pennsylvania, priority 2004, dated 2010).

Columns and labels:
Assay type in all cases: in vivo, rat
[1] = tested on: Male Fisher 344 rats; assay: Urinary 8-OHdG by immunoassay; conditions: for 8-OHdG (by immunoassay): urine
Description: (§1) Animals and treatment protocol: Male Fisher 344 rats (260-280 g) obtained from Charles River Laboratories (Raleigh, N.C.) were used in all experiments. The animals were housed three to a cage. Autoclaved hardwood bedding was used in solid-bottom polycarbonate cages with filter tops. Animal rooms were maintained at 20-25° C. with 35-70% relative humidity with alternating 12-hour light and dark cycles. The rats had free access to deionized, reverse-osmosis-treated water and received autoclaved NIH 31 rodent chow (Zeigler Bros., Gardners, Pa.) ad libitum. For all experiments, rats were fasted overnight and then administered intraperitoneal injections of carbon tetrachloride in canola oil. Control rats received an equal volume of canola oil. Fasting continued throughout the experiment. Rats were anesthetized with Nembutal (0.1 ml/100 g body weight) and 5 ml blood was removed from the dorsal aorta proximal to its bifurcation into the common iliac arteries.
(§2) Carbon tetrachloride (CCL4) treatment: Animals from each of the three dose groups (Control-canola oil, 120 mg/kg CCl4 i.p. and 1200 mg/kg CCl4 i.p.) were investigated at three time points (2, 7, and 16 hours after CCl4 injection). Indomethacin-pretreated rats were also investigated at the same three time points, and the meclofenamic acid-pretreated rats were investigated at one time point (7 hours). Each group consisted of five rats for each analysis, except the meclofenamic acid pretreatment group which consisted of six rats. Animal treatment, sample preparation, assessment of liver histology and serum enzyme activities are described elsewhere (Kadiiska et al., 2000, Free Radic. Biol. Med. 28: 838-845; Jackson, 1989, J. Pharmacol. Exp. Ther. 250: 9-21) and were carried out at NIEHS, Research Triangle Park, N.C.
Urine sample preparation: The day prior to treatment, both experimental and control animals were placed in stainless steel metabolic cages especially designed for urine collection. For Experimental Example 2, animals were placed in metabolic cages immediately after the last injection of indomethacin or meclofenamic acid. Urine was collected (in dark vials) from the animals during the following intervals: 2 to 7 hours and 7 to 16 hours after CCl4 or canola oil (controls) treatment. Urine samples from indomethacin-pretreated rats were collected from 2 to 7 hours and 7 to 16 hours after the injection of CCl4, whereas samples from meclofenamic-acid-pretreated rats were collected only from 2 to 7 hours after the injection. All urine samples were immediately frozen on dry ice and stored at −70° C.
8-Hydroxy-2′-deoxyguanosine (8-OHdG) was measured using an immunoassay. In brief, 8-OHdG was determined using a microtiter ELISA method where the test analyte competed with monoclonal antibody against 8-OHdG for 8-OHdG bound to the plate. After incubation and washing, an anti-mouse second antibody conjugated to horseradish peroxidase was used to determine the bound monoclonal antibody. The color yield is […] to the analyte concentration. Data reduction was by 4-parameter logistic curve fit. The assay was developed and measurements were performed by Oxis Research, Portland, Oreg.

[2] = tested on: Male Fisher 344 rats; assay: Plasma MDA by GC/NICI-MS; conditions: for MDA (by GC-M5): plasma
Description: as §1
Indomethacin pretreatment: The indomethacin regimen used has been previously shown to inhibit COX activity in rats by 90% (dose of 5 mg/kg s.c. 24 hours, 12 hours, and 2 hours prior to the injection of CCl4) (Jackson, 1989, J. Pharmacol. Exp. Ther. 250: 9-21). An additional booster dose was injected 8 hours after the last injection of CCl4 for the measurements performed 16 hours after treatment with CCl4.
as §2
Plasma sample preparation: Blood (5 ml) was drawn through single draw Vacutainer® needles (21 Gauge) into open Vacutainer® blood collection tubes containing heparin. The tubes were gently inverted 2-3 times for mixing and immediately placed on ice. Blood was centrifuged (2,000 rpm for 10 minutes at 4° C.) no more than 30 minutes after collection, and the plasma was collected, frozen on dry ice and stored at −70° C.
Plasma MDA concentrations were also measured by using gas chromatography/negative ion chemical ionization mass spectroscopy (GC/NICI-MS) as described by Yeo et al. (Yeo et al., 1994, Anal. Biochem. 220: 391-396). The stable isotope internal standard [^2H2] MDA and an antioxidant (2,6-tert-butyl-4-methylphenol) were added to the plasma samples. The samples were then incubated at room temperature in 6.6 mol H2SO4 for 10 minutes to hydrolyze the aldehydes from the proteins. Plasma MDA was converted to a stable pentafluorophenyl hydrazine derivative which was quantified by using the GC-MS in the negative chemical ionization mode. The assay was performed at Children's Hospital Oakland Research Institute, Oakland, Calif.

[3] = tested on: Male Fisher 344 rats; assay: Urinary free 8-iso-PGF2α by radioimmunoassay; conditions: both doses of CCl4, 7 h
Description: as §1
Meclofenamic acid pretreatment: Meclofenamic acid was injected at a dose of 5 mg/kg i.p. 12 h and 2 h prior to the injection of CCl4.
as §2, with “N.C. […]” for “N.C.”
In Experimental Example 2, urine samples were also analyzed for free 8-iso-PGF2α, without any extraction, by radioimmunoassay (Basu, 1998, Prost. Leuk. Ess. Fatty Acids. 58: 319-325). […]

ClC(Cl)(Cl)Cl [CCl4, Carbon tetrachloride]
8-OHdG (by immunoassay) ([1]; CCl4 120 mg/kg i.p., 7 h): 42 ng/mg creatinine | 8-OHdG (by immunoassay) ([1]; CCl4 120 mg/kg i.p., 16 h): 83 ng/mg creatinine | 8-OHdG (by immunoassay) ([1]; CCl4 1200 mg/kg i.p., 7 h): 165 ng/mg creatinine | 8-OHdG (by immunoassay) ([1]; CCl4 1200 mg/kg i.p., 16 h): 60 ng/mg creatinine | increase of urinary 8-OHdG ([1]; high dose CCl4, 7 h): 7 fold | increase of urinary 8-OHdG ([1]; high dose CCl4, 16 h): 3 fold | increase of plasma MDA (GC/NICI-MS) ([2]; 7 hours after CCl4): 3 fold | MDA (by GC-M5) ([2]; CCl4 120 mg/kg i.p., 2 h): 0.41 µM | MDA (by GC-M5) ([2]; CCl4 120 mg/kg i.p., 7 h): 0.35 µM | MDA (by GC-M5) ([2]; CCl4 120 mg/kg i.p., 16 h): 0.22 µM | MDA (by GC-M5) ([2]; CCl4 1200 mg/kg i.p., 2 h): 1.35 µM | MDA (by GC-M5) ([2]; CCl4 1200 mg/kg i.p., 7 h): 0.36 µM | MDA (by GC-M5) ([2]; CCl4 1200 mg/kg i.p., 16 h): 0.23 µM | increase of plasma MDA compared to controls (GC/NICI-MS) ([2]; higher dose of CCl4, 2 hours): 12 fold | urinary free 8-iso-PGF2α (radioimmunoassay) [3]: dose-dependent increase
